Experimental findings from US9573887B2, “Naphthalene derivative” (Daito Chemix Corporation, priority 2010, dated 2017) are described below.

Counter-ions that a name gives are not always drawn.

In the first assay the target is T1, Mouse VCP (Mus musculus, UniProt Q01853).
T1 construct: histidine tag (N); made in house; host or cells: Sf-9 insect cells (baculovirus vector pVL1392)
T1 sequence (Q01853 whole entry): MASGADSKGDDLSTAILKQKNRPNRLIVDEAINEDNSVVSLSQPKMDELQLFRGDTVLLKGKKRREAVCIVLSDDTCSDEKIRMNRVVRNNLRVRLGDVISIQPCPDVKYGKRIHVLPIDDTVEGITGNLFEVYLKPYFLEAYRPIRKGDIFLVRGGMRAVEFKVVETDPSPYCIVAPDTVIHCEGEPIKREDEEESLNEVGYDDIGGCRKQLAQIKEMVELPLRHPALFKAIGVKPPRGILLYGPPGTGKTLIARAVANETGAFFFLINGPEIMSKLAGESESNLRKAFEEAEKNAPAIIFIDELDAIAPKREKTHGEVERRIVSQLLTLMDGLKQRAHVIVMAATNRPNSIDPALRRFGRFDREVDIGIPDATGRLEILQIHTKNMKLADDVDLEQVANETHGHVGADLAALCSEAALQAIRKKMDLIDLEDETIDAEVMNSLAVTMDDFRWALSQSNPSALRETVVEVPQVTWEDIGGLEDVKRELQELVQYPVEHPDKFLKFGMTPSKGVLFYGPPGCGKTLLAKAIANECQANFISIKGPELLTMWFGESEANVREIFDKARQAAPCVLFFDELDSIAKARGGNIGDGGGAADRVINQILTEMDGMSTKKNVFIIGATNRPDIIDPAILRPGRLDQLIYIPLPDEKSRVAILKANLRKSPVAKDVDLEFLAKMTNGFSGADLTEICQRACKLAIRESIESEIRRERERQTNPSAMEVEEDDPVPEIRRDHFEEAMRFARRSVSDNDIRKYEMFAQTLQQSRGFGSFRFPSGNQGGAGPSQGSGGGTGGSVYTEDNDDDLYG
In words: ATPase activity of purified His-tagged VCP, [γ-32P]ATP, liberated phosphate by liquid scintillation. It is filed as biochemical. Particulars: compounds of Comparative Examples; determined in the same manner as the Examples. As for the experimental part:
In one aspect, the effect of VCP regulators for regulating ATPase activity is determined, for example by the following exemplary assay. Mouse VCP cDNA (the amino acid sequence is completely identical among mouse, rat and human) is added with a DNA sequence corresponding to a histidine tag at the amino-terminal, subcloned into a baculovirus vector pVL1392 (BD Bioscience), and expressed in Sf-9 insect cells. The protein is purified with a nickel column. After the purification the concentration of the protein is adjusted to 0.25-0.5 μg/ml and the protein is stored in a solution containing 50 mM TrisCl pH 8.0, 5 mM EDTA, 10% glycerol, and 15 mM DTT at 4° C. 500 ng of the purified VCP is mixed with 100 μM [γ-^32P]ATP (18.5 GBq/mmol) and the test substance in 20 μL of ATPase buffer (20 mM HEPES (pH7.4), 50 mM KCl, 5 mM MgCl2, 15 mM DTT), and incubated at 37° C. for 10 minutes. The enzyme reaction is stopped with addition of 200 μL of an ice-cold solution containing 7% TCA and 1 mM K2HPO4. 50μ of a solution containing 3.75% ammonium molybdate and 0.02M tungstate silicic/3 N H2SO4 is added, followed by 300 μL of n-butylacetic acid, and then the liberated phosphate is extracted into the organic layer. The reaction tube is centrifuged for 5 minutes at 20,000 g to separate the aqueous layer and the organic layer, 200 μL of the organic layer is taken, and the beta ray radiated from the liberated phosphate is quantified with liquid scintillation counter. By measuring the ATPase activity in the presence of the test substance at various concentrations, ATPase inhibitory activity of the test substance is measured.
Mouse VCP cDNA was added with a DNA sequence corresponding to histidine tag at the amino-terminal, subcloned into a baculovirus vector pVL1392 (BD Bioscience), and expressed in Sf-9 insect cells. The protein was purified with a nickel column (GE Healthcare). The concentration of the protein was adjusted to 0.25-0.5 μg/ml and the protein was stored in a solution containing 50 mM TrisCl pH 8.0, 5 mM EDTA, 10% glycerol, and 15 mM DTT.
The ATPase activity was determined as follows. 500 ng of the purified VCP was mixed with 100 μM [γ-32P]ATP (18.5 GBq/mmol) and the test substance in 20 μL of ATPase buffer (20 mM HEPES (pH7.4), 50 mM KCl, 5 mM MgCl2, 15 mM DTT), and incubated at 37° C. for 10 minutes.
The enzyme reaction was stopped with addition of 200 μL of an ice-cold solution containing 7% TCA and 1 mM K2HPO4. 50μ of a solution containing 3.75% ammonium molybdate and 0.02M tungstate silicic/3 NH2SO4 was added, followed by 300 μL of n-butylacetic acid, and then the liberated phosphate was extracted into the organic layer. The reaction tube was centrifuged for 5 minutes at 20,000 g to separate the aqueous layer and the organic layer, 200 μL of the organic layer was taken, and the beta ray radiated from the liberated phosphate was quantified with liquid scintillation counter.
By measuring the ATPase activity in the presence of the test substance at various concentrations, ATPase inhibitory activity of the test substance was measured. IC50 of the each test substance was calculated by applying the measured values to the equation below using GraphPad Prism (GraphPad Software).
Regarding `Nc1ccc(-c2cccc3c2sc2ccccc23)nc1` [Example 30, sodium salt], the IC50 (in general, the point on the concentration scale where inhibition reaches its midpoint) is more than 100 µM.

Still in this assay, the particulars now being: compounds of Examples; ATPase inhibitory activity; 500 ng VCP, 100 μM ATP, 37° C., 10 minutes.
As to `Cc1ccc2cccc(-c3ccc(/N=N/c4cc(S(=O)(=O)O)c5ccccc5c4N)cn3)c2n1` [Example 84, 4-amino-3-[6-(2-methylquinoline-8-yl)pyridine-3-ylazo]naphthalene-1-sulfonic acid sodium salt], the IC50 worked out at 0.567 µM.
Same read-out and setting: next, `Nc1c(/N=N/c2ccc(C(=O)O)cc2)cc(S(=O)(=O)O)c2ccccc12` [Example 104, 4-(1-amino-4-sulfonaphthalene-2-ylazo)benzoic acid disodium salt]: 2.07 µM; `Nc1c(/N=N/c2ccc(-c3ccccc3Cl)nc2)cc(S(=O)(=O)O)c2ccccc12` [Example 22, 4-amino-3-[6-(2-chlorophenyl)pyridine-3-ylazo]naphthalene-1-sulfonic acid sodium salt]: 0.197 µM.
With `Nc1c(/N=N/c2ccc(-c3cccc4c3oc3ccccc34)nc2)cc(S(=O)(=O)O)c2ccccc12` [Example 39, 4-amino-3-(6-dibenzofuran-4-ylpyridine-3-ylazo)naphthalene-1-sulfonic acid sodium salt], the IC50 is 0.754 µM.
Same read-out and setting: then `CCOC(=O)c1ccc(/N=N/c2cc(S(=O)(=O)O)c3ccccc3c2N)cc1` [Example 103, ethyl 4-(1-amino-4-sulfonaphthalene-2-ylazo)benzoate sodium salt], with 0.887 µM; and `Nc1c(/N=N/c2cccc(C(=O)c3ccccc3)c2)cc(S(=O)(=O)O)c2ccccc12` [Example 130, 4-amino-3-(3-benzoylphenylazo)naphthalene-1-sulfonic acid sodium salt], with 0.26 µM; and `Cc1ccc(F)cc1-c1ccc(/N=N/c2cc(S(=O)(=O)O)c3ccccc3c2N)cn1` [Example 58, 4-amino-3-[6-(5-fluoro-2-methylphenyl)pyridine-3-ylazo]naphthalene-1-sulfonic acid sodium salt], with 0.32 µM.
The same measure, in the same setting: then `Nc1c(/N=N/c2ccccc2OCc2ccncc2)cc(S(=O)(=O)O)c2ccccc12` [Example 141, 4-amino-3-[2-(pyridine-4-ylmethoxy)phenylazo]naphthalene-1-sulfonic acid sodium salt], with 0.747 µM; and `Nc1c(/N=N/c2ccc(-c3cccc4c3sc3ccccc34)nc2)cc(S(=O)(=O)O)c2ccccc12` [Example 31, 4-amino-3-(6-dibenzothiophene-4-ylpyridine-3-ylazo)naphthalene-1-sulfonic acid sodium salt], with 1.03 µM; and `Nc1c(/N=N/c2ccc(-c3ccccc3OCCCCCCO)nc2)cc(S(=O)(=O)O)c2ccccc12` [Example 64, 4-amino-3-{6-[2-(6-hydroxyhexyloxy)phenyl]pyridine-3-ylazo}naphthalene-1-sulfonic acid sodium salt], with 0.324 µM.
Still for that read-out and setting: then `Nc1c(/N=N/c2ccc(-c3ccccc3OCCCN3C(=O)c4ccccc4C3=O)nc2)cc(S(=O)(=O)O)c2ccccc12` [Example 78, 4-amino-3-(6-{2-[3-(1,3-dioxo-1,3-dihydroisoindole-2-yl)propoxy]phenyl}pyridine-3-ylazo)naphthalene-1-sulfonic acid sodium salt], with 0.402 µM.
With `Nc1c(/N=N/c2ccc(C(=O)Nc3ccccc3)cc2)cc(S(=O)(=O)O)c2ccccc12` [Example 129, 4-amino-3-(4-phenylcarbamoylphenylazo)naphthalene-1-sulfonic acid sodium salt], the half-inhibitory concentration (IC50) is 1.9 µM.
For the molecule `Nc1c(/N=N/c2c(Br)cc(Br)cc2Br)cc(S(=O)(=O)O)c2ccccc12` [Example 114, 4-amino-3-(2,4,6-tribromophenylazo)naphthalene-1-sulfonic acid sodium salt], the IC50 is 0.099 µM.
As for `COc1ccc(/N=N/c2cc(S(=O)(=O)O)c3ccccc3c2N)cn1` [Example 2, 4-amino-3-(6-methoxypyridine-3-ylazo)naphthalene-1-sulfonic acid sodium salt], the IC50 turned out to be 0.571 µM.
Same read-out and setting: next, `Nc1c(/N=N/c2ccccc2Cl)cc(S(=O)(=O)O)c2ccccc12` [Example 98, 4-amino-3-(2-chlorophenylazo)naphthalene-1-sulfonic acid sodium salt]: 0.591 µM; `Cc1ccccc1-c1ccc(/N=N/c2cc(S(=O)(=O)O)c3ccccc3c2N)cn1` [Example 10, 4-amino-3-(6-o-tolylpyridine-3-ylazo)naphthalene-1-sulfonic acid sodium salt]: 0.149 µM.
Same read-out and setting: then `Cc1ccc(-c2ccc(Cl)cc2)c(-c2ccc(/N=N/c3cc(S(=O)(=O)O)c4ccccc4c3N)cn2)c1` [Example 72, 4-amino-3-[6-(4′-chloro-4-methylbiphenyl-2-yl)pyridine-3-ylazo]naphthalene-1-sulfonic acid sodium salt], with 0.796 µM.
The same measure, in the same setting: then `Nc1c(/N=N/c2cnc(Cl)c(-c3ccccc3)c2)cc(S(=O)(=O)O)c2ccccc12` [Example 88, 4-amino-3-(6-chloro-5-phenylpyridine-3-ylazo)naphthalene-1-sulfonic acid sodium salt], with 0.348 µM; and `Cc1ccc(/N=N/c2cc(S(=O)(=O)O)c3ccccc3c2N)cc1` [Example 122, 4-amino-3-p-tolylazonaphthalene-1-sulfonic acid sodium salt], with 0.849 µM; and `Cc1cccc(-c2ccc(/N=N/c3cc(S(=O)(=O)O)c4ccccc4c3N)cc2)c1` [Example 126, 4-amino-3-(3′-methylbiphenyl-4-ylazo)naphthalene-1-sulfonic acid sodium salt], with 0.343 µM.
For `Cc1ccc(/N=N/c2cc(S(=O)(=O)O)c3ccccc3c2N)c([N+](=O)[O-])c1` [Example 120, 4-amino-3-(4-methyl-2-nitrophenylazo)naphthalene-1-sulfonic acid sodium salt], the IC50 worked out at 0.162 µM.
Consider `Nc1c(/N=N/c2cccc(OCc3ccncc3)c2)cc(S(=O)(=O)O)c2ccccc12` [Example 139, 4-amino-3-[3-(pyridine-4-ylmethoxy)phenylazo]naphthalene-1-sulfonic acid sodium salt], for which the IC50 came to 0.6 µM.
Turning to `Cc1cc(C)cc(-c2ccc(/N=N/c3cc(S(=O)(=O)O)c4ccccc4c3N)cn2)c1` [Example 35, 4-amino-3-[6-(3,5-dimethylphenyl)pyridine-3-ylazo]naphthalene-1-sulfonic acid sodium salt], the IC50 was 0.632 µM.
As for `CCCCOc1ccccc1-c1ccc(/N=N/c2cc(S(=O)(=O)O)c3ccccc3c2N)cn1` [Example 60, 4-amino-3-[6-(2-butoxyphenyl)pyridine-3-ylazo]naphthalene-1-sulfonic acid sodium salt], the IC50 amounted to 0.25 µM.
On the same count and under the same terms, next, `Nc1c(/N=N/c2ccc(-c3c(OCc4cccnc4)ccc4c3sc3ccccc34)nc2)cc(S(=O)(=O)O)c2ccccc12` [Example 80, 4-amino-3-{6-″3-(pyridine-3-ylmethoxy)dibenzothiophene-4-yl]pyridine-3-ylazo}naphthalene-1-sulfonic acid sodium salt]: 0.329 µM; `Nc1c(/N=N/c2ccc(Br)cc2)cc(S(=O)(=O)O)c2ccccc12` [Example 110, 4-amino-3-(4-bromophenylazo)naphthalene-1-sulfonic acid sodium salt]: 0.226 µM.
Take `Nc1c(/N=N/c2ccccc2)cc(S(=O)(=O)O)c2ccccc12` [Example 93, 4-amino-3-phenylazonaphthalene-1-sulfonic acid sodium salt]: the IC50 was found to be 0.762 µM.
`CCCCOc1c(OCC)cc(C=O)cc1-c1ccc(/N=N/c2cc(S(=O)(=O)O)c3ccccc3c2N)cn1` [Example 148, 4-amino-3-[6-(2-butoxy-3-ethoxy-5-formylphenyl)pyridine-3-ylazo]naphthalene-1-sulfonic acid sodium salt]: the IC50 worked out at 1.56 µM.
